Laboratory results published in US20070212408A1, “Stable Pharmaceutical Composition Containing Benzimidazole Derivatives and Method of Manufacturing the Same” (priority 2004, published 2007).

How the values were obtained:
[1] = Storage stability test of inclusion complexes containing lansoprazole (Test Example 3), HPLC content; format: physicochemical; conditions: 60° C., 75% RH, relative to initial content
[2] = Storage stability test of inclusion complexes containing lansoprazole (Test Example 1), HPLC content; format: physicochemical; conditions: 60° C., 75% RH

- Content after 1 wk (%) ([1]; 1 wk): 96.62%
- Content after 2 wk (%) ([1]; 2 wk): 76.88%
- Content after 1 wk (%) ([2]; 1 wk, relative to initial content, HPLC): 96.62%
- Content after 2 wk (%) ([2]; 2 wk, relative to initial content, HPLC): 76.88%
- Color Change after 4 wk ([2]; 4 wk): Dark brown
- Content after 4 wk (%) ([2]; 4 wk, relative to initial content, HPLC): Not detected
SMILES: Cc1c(OCC(F)(F)F)ccnc1C[S+]([O-])c1nc2ccccc2[nH]1 (stereo not drawn) [lansoprazole]
